{"source": "patent US8486916B2", "about": "“Medicine, food and drink or feed containing sphingomyelin” (Megmilk Snow Brand Co., Ltd., priority 2005, dated 2013)", "key": {"[1]": {"test_system": "sialomucin content in the saliva", "assay": "Effect of promoting sialomucin secretion: sialomucin content in rat saliva", "type": "in vivo, SD rats", "details": "7th day of experimental diet containing 1% of the substance", "experimental": "Seven-week-old male SD rats (manufactured by Charles River Laboratories, Japan, Inc) were raised under conditions involving humidity of 60%, room temperature of 24° C., and light-dark (12 hour/12 hour) control. All the rats were preliminarily raised for 1 week with a standard diet and then divided into 3 groups each containing 12 individuals. These groups were allowed to freely take their respective experimental diets and raised for 1 week. Rat saliva was collected on the 7th day after the administration of experimental diets. A sialomucin content in the saliva was measured by high-performance liquid chromatography. […] In this context, a sialomucin content in the saliva was measured by the following method: 0.2 ml of a Nembutal solution was intramuscularly injected to rats fasted for 2 hours or longer. After anesthesia, a solution of pilocarpine hydrochloride serving as a saliva secretion promoter was intramuscularly injected thereto. […] A sialomucin content in the sialomucin fraction was quantified with a Sialic Acid Fluorescence Labeling Kit (Takara Bio Inc.). […] Free N-acetyl sialic acid or O-acetylated sialic acid was reacted at 55° C. for 2.5 hours by the addition of a DMB reagent as a fluorescence labeling agent and then quantified by high-performance liquid chromatography."}, "Male Wistar rats": {"test_system": "Male Wistar rats", "assay": "Effect of preventing drunken sickness (hangover) after ethyl alcohol administration", "type": "in vivo", "details": "2 mg/kg oral together with 10 ml/kg of 40 (v/v) % ethyl alcohol", "source_text": "Male Wistar rats were preliminarily raised for 1 week. Then, the rats of 110 to 120 g in body weight were used. The rats were fasted overnight before the experiment and given neither food nor water during the experiment. The rats were divided into an alcohol single administration group (control group) and a sphingomyelin administration group. Each group contained 5 individuals. […] After administration, the rats were observed until they recovered from drunken symptoms."}, "EAE rats": {"test_system": "EAE rats", "assay": "Effect of sphingomyelin on EAE rats", "type": "in vivo, Lewis rats", "details": "for Cumulative score of symptoms: six-grade score 0-5", "experimental": "A therapeutic effect on EAE rats serving as models of multiple sclerosis, one of demyelinating diseases, will be shown. The hind footpad of Lewis rats (female, 6 week old) in groups each containing 5 individuals was immunized with a mixture of syngeneic rat brain homogenates with an equal amount of a complete Freund adjuvant (manufactured by Difco) as an antigen for inducing EAE at a dose of 80 mg in terms of the amount of the brain homogenates. Sphingomyelin was intraperitoneally administered at a dose shown in Table 9 for 18 days from the immunization day. The measurement of body weights and the observation of EAE symptoms were performed every day. […] The therapeutic effect was assessed based on the cumulative score of the symptoms in each group. […] Only a saline was administered to the control group."}, "[2]": {"test_system": "phototoxic pigmentation caused by treatment with 8MOP", "type": "in vivo, female ICR mice", "details": "for depigmentation / pigmentation grade (Table 12: +3 whitened to −3 evidently blackened): 5% sample, 50 μl once daily", "source_text": "An anti-pigmentation effect and the degree of pigmentation (shown in Table 12) produced as a side effect were rated by four-grade evaluation (+: depigmentation effect, −: side effect). […] Moreover, no agent was applied to a control group. […] [table]"}, "[3]": {"test_system": "pigmentation in the back skin of the guinea pigs", "assay": "Anti-pigmentation effect by oral administration (ultraviolet-irradiated skin)", "type": "in vivo, A-1 guinea pigs", "experimental": "Sphingomyelin was tested for its anti-pigmentation effect by oral administration. The back of female A-1 guinea pigs (body weight: approximately 400 g) was shaved and irradiated with ultraviolet rays (UVA (max. 360 nm): 30.3 kJ/m^2, UVB (max. 312 nm): 4.8 kJ/m^2) once daily for 4 days. […] The oral administration to each group was performed once daily using a sonde, and the guinea pigs were raised for 4 weeks. The sphingomyelin raw material of Example 1 was suspended in 10 g of a saline, and this suspension was orally administered to each of the groups B to D. Influence on pigmentation in the back skin of the guinea pigs in each group was measured with a colorimeter (CHROMA METER CR-200) manufactured by MINOLTA at the start of sample administration and at the completion of sample administration. A lightness recovery rate from the start of sample administration was calculated."}, "[4]": {"test_system": "carrageenin-induced edema", "assay": "Carrageenin-induced footpad edema method", "type": "in vivo, Wistar rats", "details": "100 mg/kg oral; 5 hours after λ-carrageenin injection", "experimental": "The anti-inflammatory effect of sphingomyelin was tested by a carrageenin-induced footpad edema method. Specifically, a test subject shown in Table 15 was suspended in an aqueous solution containing 0.5% carboxymethylcellulose and orally administered (100 mg/kg) to male Wistar rats (body weight: 110 to 130 g, 8 individuals per group) according to the method of Winter et al. (Proceedings of the Society for Experimental Biology & Medicine, vol. 111, pp. 554, 1962). […] An aqueous solution containing 0.5% carboxymethylcellulose and no test substance was administered to rats in a control group. A rate of increase in footpad volume (V0) attributed to the injection of λ-carrageenin was measured in the control group in the same way as above. An carrageenin-induced edema inhibition rate (%) was calculated according to the calculation formula: (V0−V1)×100/V0 and used as the anti-inflammatory activity of the test substance. A higher value of this inhibition rate indicates higher anti-inflammatory activity."}, "enteropathogenic E. coli": {"test_system": "enteropathogenic E. coli", "details": "SD rats"}, "[5]": {"details": "1 mg/kg intraperitoneal for 18 days"}, "[6]": {"details": "2 mg/kg intraperitoneal for 18 days"}}, "note": "Read-outs that look alike come from different tables or passages of the source.", "data": [{"substance": "sphingomyelin", "values": [{"measurement": "Sialomucin content", "setting": "[1]", "result": "25.2 ± 2.9", "unit": "µg/µL"}, {"measurement": "symptoms after administration", "setting": "Male Wistar rats", "result": "only staggering gait"}, {"measurement": "time to recover from drunken symptoms", "setting": "Male Wistar rats; control 5 hours", "result": "≤ 1", "unit": "h"}, {"measurement": "Cumulative score of symptoms with respect to saline-administered control group defined as 100%", "setting": "EAE rats; [5]", "result": 18, "unit": "%"}, {"measurement": "Frequency of onset", "setting": "EAE rats; [5]", "result": "2/5"}, {"measurement": "The average number of days required for onset", "setting": "EAE rats; [5]", "result": 15.2}, {"measurement": "Cumulative score of symptoms", "setting": "EAE rats; [5]", "result": 10}, {"measurement": "Cumulative score of symptoms with respect to saline-administered control group defined as 100%", "setting": "EAE rats; [6]", "result": 19, "unit": "%"}, {"measurement": "Frequency of onset", "setting": "EAE rats; [6]", "result": "2/5"}, {"measurement": "The average number of days required for onset", "setting": "EAE rats; [6]", "result": 14.5}, {"measurement": "Cumulative score of symptoms", "setting": "EAE rats; [6]", "result": 11}, {"measurement": "depigmentation / pigmentation grade (Table 12: +3 whitened to −3 evidently blackened)", "setting": "[2]; application period 1 week", "result": 0.4}, {"measurement": "depigmentation / pigmentation grade (Table 12: +3 whitened to −3 evidently blackened)", "setting": "[2]; application period 2 weeks", "result": 0.8}, {"measurement": "depigmentation / pigmentation grade (Table 12: +3 whitened to −3 evidently blackened)", "setting": "[2]; application period 3 weeks", "result": 1.2}, {"measurement": "depigmentation / pigmentation grade (Table 12: +3 whitened to −3 evidently blackened)", "setting": "[2]; application period 4 weeks", "result": 1.1}, {"measurement": "depigmentation / pigmentation grade (Table 12: +3 whitened to −3 evidently blackened)", "setting": "[2]; application period 5 weeks", "result": 0.9}, {"measurement": "depigmentation / pigmentation grade (Table 12: +3 whitened to −3 evidently blackened)", "setting": "[2]; application period 6 weeks", "result": 0.3}, {"measurement": "depigmentation / pigmentation grade (Table 12: +3 whitened to −3 evidently blackened)", "setting": "[2]; application period 7 weeks", "result": 0}, {"measurement": "depigmentation / pigmentation grade (Table 12: +3 whitened to −3 evidently blackened)", "setting": "[2]; application period 8 weeks", "result": 0}, {"measurement": "side effect (pigmentation) on application", "setting": "[2]; mouse, in vivo", "result": "no side effect"}, {"measurement": "Lightness recovery rate", "setting": "[3]; 2 mg/kg oral once daily for 4 weeks (group B), group A 31", "result": 48, "unit": "%"}, {"measurement": "Lightness recovery rate", "setting": "[3]; 5 mg/kg oral once daily for 4 weeks (group C)", "result": 62, "unit": "%"}, {"measurement": "Lightness recovery rate", "setting": "[3]; 10 mg/kg oral once daily for 4 weeks (group D)", "result": 78, "unit": "%"}, {"measurement": "lightness recovery rate relative to that in the group A", "setting": "[3]; groups B to D versus saline group A, 4-week oral administration", "result": "up to 2.5 times"}, {"measurement": "Inhibition rate", "setting": "[4]", "result": 40.2, "unit": "%"}, {"measurement": "Incidence of diarrhea", "setting": "enteropathogenic E. coli; intake 0.1 mg/day in feed, control 100", "result": 100, "unit": "%"}, {"measurement": "Incidence of diarrhea", "setting": "enteropathogenic E. coli; intake 1.0 mg/day in feed", "result": 40, "unit": "%"}, {"measurement": "Incidence of diarrhea", "setting": "enteropathogenic E. coli; intake 5.0 mg/day in feed", "result": 30, "unit": "%"}, {"measurement": "Incidence of diarrhea", "setting": "enteropathogenic E. coli; intake 10.0 mg/day in feed", "result": 10, "unit": "%"}]}]}
